Source: patent US11457628B2, “Substituted pyrimidine compound and preparation method and use thereof” (SHENYANG SINOCHEM AGROCHEMICALS R&D CO., LTD., priority 2017, dated 2022)

Tests used:
cucumber anthrax = format: in vivo; details: dose 400 ppm
cucumber downy mildew = assay: in vivo protective activity, pot determination, cucumber downy mildew
green peach aphid = assay: activity against the green peach aphid, airbrush spray method; format: in vivo; details: 100 mg/L, after 48 hours
rice blast = assay: microbe, parasite or virus in culture; format: cell-based; details: Pyricularia oryzae, 24 h, read-out: inhibition activity for rice blast
Tetranychus cinnabarinus = assay: activity against Tetranychus cinnabarinus, airbrush spray method; details: 600 mg/L, after 72 hours
corn rust = assay: in vivo protective activity, pot determination, corn rust
wheat powdery mildew = assay: in vivo protective activity, pot determination, wheat powdery mildew

Cc1c(OCCNc2ncnc3scc(Cl)c23)nn(C)c1-c1ccc(F)cc1 [Compound 21-1-4]
protective effect for the melon anthrax / cucumber anthrax (cucumber anthrax): 100%

Cc1c(OCC(C)Nc2ncnc3scc(Cl)c23)nn(C)c1-c1ccccc1 (centres unmarked) [Compound 21-4-1]
protective effect for the melon anthrax / cucumber anthrax (cucumber anthrax): 100%

CCc1ncnc(NCc2cnn(-c3ccccc3)c2C)c1Cl [CK1]
Protective Activity (%), cucumber downy mildew (cucumber downy mildew; 25 mg/L): 0%
Protective Activity (%), cucumber downy mildew (cucumber downy mildew; 50 mg/L): 20%
Protective Activity (%), cucumber downy mildew (cucumber downy mildew; 100 mg/L): 95%
Protective Activity (%), cucumber downy mildew (cucumber downy mildew; 400 mg/L): 100%
Lethality to Green Peach Aphid (%) (green peach aphid): 0%
inhibition at 2.8 ppm (rice blast): 0%
inhibition at 8.3 ppm (rice blast): 0%
inhibition at 25 ppm (rice blast): 0%

Cc1c(OCCNc2ncnc(C(F)F)c2Cl)nn(C)c1-c1ccccc1 [Compound 12-1-1]
protective effect for the melon anthrax / cucumber anthrax (cucumber anthrax): 100%

Cn1nc(OCCNc2ncnc3scc(Cl)c23)cc1-c1ccc(Cl)cc1Cl [Compound 21-21]
protective effect for the melon anthrax / cucumber anthrax (cucumber anthrax): 100%

CCc1ncnc(OCCOc2nn(C)c(-c3ccccc3)c2C)c1Cl [Compound 26-1-1]
protective effect for the melon anthrax / cucumber anthrax (cucumber anthrax): 100%

Cc1ncnc(NCCOc2cc(-c3ccc(Cl)cc3Cl)n(C)n2)c1Cl [Compound 10-21]
protective effect for the melon anthrax / cucumber anthrax (cucumber anthrax): 100%

Cc1c(OCCCNc2ncnc(C(F)F)c2Cl)nn(C)c1-c1ccccc1 [Compound 12-3-1]
inhibition at 2.8 ppm (rice blast): > 80%
inhibition at 8.3 ppm (rice blast): > 80%
inhibition at 25 ppm (rice blast): > 80%

Cc1nc(C)c(C)c(N(C)Cc2cnn(-c3ccccc3)c2)n1 [CK3]
Protective Activity (%), cucumber downy mildew (cucumber downy mildew; 50 mg/L): 0%
Protective Activity (%), cucumber downy mildew (cucumber downy mildew; 100 mg/L): 30%
Protective Activity (%), cucumber downy mildew (cucumber downy mildew; 400 mg/L): 100%
Lethality to Green Peach Aphid (%) (green peach aphid): 30%
protective effect for the melon anthrax / cucumber anthrax (cucumber anthrax): 0%
Lethality to Tetranychus Cinnabarinus (%) (Tetranychus cinnabarinus): 56%
Protective Activity (%), corn rust (corn rust; 6.25 mg/L): 0%
Protective Activity (%), corn rust (corn rust; 25 mg/L): 0%
Protective Activity (%), corn rust (corn rust; 100 mg/L): 20%
Protective Activity (%), corn rust (corn rust; 400 mg/L): 60%
inhibition at 2.8 ppm (rice blast): 0%
inhibition at 8.3 ppm (rice blast): 0%
inhibition at 25 ppm (rice blast): 0%
Protective Activity (%), wheat powdery mildew (wheat powdery mildew; 400 mg/L): 0%

CCc1ncnc(NCCOc2nn(C)c(-c3ccc(Cl)cc3)c2C)c1Cl [Compound 11-1-19]
protective effect for the melon anthrax / cucumber anthrax (cucumber anthrax): 100%

Cc1c(OCC(C)Nc2ncnc3ccccc23)nn(C)c1-c1ccccc1 (centres unmarked) [Compound 19-4-1]
protective effect for the melon anthrax / cucumber anthrax (cucumber anthrax): 100%

Cc1nc(Cl)cc(N(C)Cc2c(C)nn(-c3ccccc3)c2C)n1 [CK5]
Protective Activity (%), cucumber downy mildew (cucumber downy mildew; 400 mg/L): 85%
Lethality to Green Peach Aphid (%) (green peach aphid): 22%
protective effect for the melon anthrax / cucumber anthrax (cucumber anthrax): 0%
Lethality to Tetranychus Cinnabarinus (%) (Tetranychus cinnabarinus): 58%
Protective Activity (%), corn rust (corn rust; 6.25 mg/L): 20%
Protective Activity (%), corn rust (corn rust; 25 mg/L): 60%
Protective Activity (%), corn rust (corn rust; 100 mg/L): 70%
Protective Activity (%), corn rust (corn rust; 400 mg/L): 98%
inhibition at 2.8 ppm (rice blast): 0%
inhibition at 8.3 ppm (rice blast): 0%
inhibition at 25 ppm (rice blast): 0%
Protective Activity (%), wheat powdery mildew (wheat powdery mildew; 400 mg/L): 0%

Cc1c(OCCNc2ncnc(C(F)F)c2Cl)nn(C)c1-c1ccc(Cl)cc1 [Compound 12-1-19]
protective effect for the melon anthrax / cucumber anthrax (cucumber anthrax): 100%
protective effect for control of wheat powdery mildew (wheat powdery mildew; dose 6.25 ppm): more than 80%

Cc1c(OCCNc2ncnc3ccccc23)nn(C)c1-c1ccc(F)cc1 [Compound 19-1-4]
protective effect for the melon anthrax / cucumber anthrax (cucumber anthrax): 100%

CCc1ncnc(NCc2cnn(-c3ccccc3)c2C(F)(F)F)c1Cl [CK2]
Protective Activity (%), cucumber downy mildew (cucumber downy mildew; 25 mg/L): 0%
Protective Activity (%), cucumber downy mildew (cucumber downy mildew; 50 mg/L): 20%
Protective Activity (%), cucumber downy mildew (cucumber downy mildew; 100 mg/L): 75%
Protective Activity (%), cucumber downy mildew (cucumber downy mildew; 400 mg/L): 100%
inhibition at 2.8 ppm (rice blast): 0%
inhibition at 8.3 ppm (rice blast): 0%
inhibition at 25 ppm (rice blast): 0%
Protective Activity (%), wheat powdery mildew (wheat powdery mildew; 6.25 mg/L): 0%
Protective Activity (%), wheat powdery mildew (wheat powdery mildew; 25 mg/L): 20%
Protective Activity (%), wheat powdery mildew (wheat powdery mildew; 100 mg/L): 50%
Protective Activity (%), wheat powdery mildew (wheat powdery mildew; 400 mg/L): 100%

Cc1cc(N(C)Cc2cnn(-c3ccccc3)c2)nc(C(C)C)n1 [CK4]
Protective Activity (%), cucumber downy mildew (cucumber downy mildew; 50 mg/L): 0%
Protective Activity (%), cucumber downy mildew (cucumber downy mildew; 100 mg/L): 40%
Protective Activity (%), cucumber downy mildew (cucumber downy mildew; 400 mg/L): 100%
Lethality to Green Peach Aphid (%) (green peach aphid): 0%
protective effect for the melon anthrax / cucumber anthrax (cucumber anthrax): 0%
Lethality to Tetranychus Cinnabarinus (%) (Tetranychus cinnabarinus): 59%
Protective Activity (%), corn rust (corn rust; 6.25 mg/L): 0%
Protective Activity (%), corn rust (corn rust; 25 mg/L): 0%
Protective Activity (%), corn rust (corn rust; 100 mg/L): 0%
Protective Activity (%), corn rust (corn rust; 400 mg/L): 40%
inhibition at 2.8 ppm (rice blast): 0%
inhibition at 8.3 ppm (rice blast): 0%
inhibition at 25 ppm (rice blast): 0%
Protective Activity (%), wheat powdery mildew (wheat powdery mildew; 400 mg/L): 0%

Cn1nc(OCCNc2ncnc3ccccc23)cc1-c1ccc(Br)cc1 [Compound 19-34]
inhibition at 25 ppm (rice blast): > 80%
